Results: PubChem BioAssay AID248 (DTP/NCI, 2004)
Toxic doses and inconclusive results are not listed. No stated cut-off is given here; in the data, active means T/C of 150% or more; inactive means T/C below 125%.

System: L1210 leukemia ip in BDF1 mice, survival T/C
Assay: NCI In Vivo Anticancer Drug Screen. Data for tumor model L1210 Leukemia (intraperitoneal) in B6D2F1 (BDF1) mice
Conditions: endpoint: mean survival time, higher = longer survival
Outline: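 Antitumor effect is assessed in tumor-bearing animals. Survival in the compound arm is compared with a vehicle-dosed control arm and expressed as their quotient.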

[1] = dose: 50.0 mg/kg/injection, schedule: Q04DX003 (ip), vehicle: Klucel (hydroxypropylcellulose) (HPC)
[2] = dose: 100.0 mg/kg/injection, schedule: Q01DX001 (ip), vehicle: saline with Tween-80
[3] = dose: 100.0 mg/kg/injection, schedule: Q01DX009 (ip), vehicle: Klucel (hydroxypropylcellulose) (HPC)
[4] = dose: 100.0 mg/kg/injection, schedule: Q04DX003 (ip), vehicle: Klucel (hydroxypropylcellulose) (HPC)
[5] = dose: 100.0 mg/kg/injection, schedule: Q04DX003 (ip), vehicle: saline
[6] = dose: 200.0 mg/kg/injection, schedule: Q01DX001 (ip), vehicle: saline with Tween-80
[7] = dose: 200.0 mg/kg/injection, schedule: Q01DX009 (ip), vehicle: Klucel (hydroxypropylcellulose) (HPC)
[8] = dose: 200.0 mg/kg/injection, schedule: Q04DX003 (ip), vehicle: Klucel (hydroxypropylcellulose) (HPC)
[9] = dose: 200.0 mg/kg/injection, schedule: Q04DX003 (ip), vehicle: saline
[10] = dose: 400.0 mg/kg/injection, schedule: Q01DX001 (ip), vehicle: saline with Tween-80
[11] = dose: 400.0 mg/kg/injection, schedule: Q04DX003 (ip), vehicle: saline
[12] = dose: 50.0 mg/kg/injection, schedule: Q01DX001 (ip), vehicle: carboxymethylcellulose (CMC)
[13] = dose: 100.0 mg/kg/injection, schedule: Q01DX001 (ip), vehicle: carboxymethylcellulose (CMC)
[14] = dose: 200.0 mg/kg/injection, schedule: Q01DX001 (ip), vehicle: carboxymethylcellulose (CMC)
[15] = dose: 400.0 mg/kg/injection, schedule: Q01DX001 (ip), vehicle: carboxymethylcellulose (CMC)
[16] = dose: 100.0 mg/kg/injection, schedule: Q01DX001 (ip), vehicle: saline
[17] = dose: 200.0 mg/kg/injection, schedule: Q01DX001 (ip), vehicle: saline
[18] = dose: 400.0 mg/kg/injection, schedule: Q01DX001 (ip), vehicle: saline
[19] = dose: 100.0 mg/kg/injection, schedule: Q01DX009 (ip), vehicle: saline
[20] = dose: 100.0 mg/kg/injection, schedule: Q04DX003 (ip), vehicle: saline with Tween-80
[21] = dose: 200.0 mg/kg/injection, schedule: Q04DX003 (ip), vehicle: saline with Tween-80
[22] = dose: 400.0 mg/kg/injection, schedule: Q04DX003 (ip), vehicle: saline with Tween-80

Measured: T/C

[Br][Sn]([Br])([CH]1CCCCC1)[CH]1CCCCC1
inactive: dose: 9.38 mg/kg/injection, schedule: Q01DX001 (ip), vehicle: other 91 % of control | dose: 18.75 mg/kg/injection, schedule: Q01DX001 (ip), vehicle: other 93 % of control

Cc1cc(=O)[nH][nH]c1=O
inactive: dose: 50.0 mg/kg/injection, schedule: Q01DX009 (ip), vehicle: Klucel (hydroxypropylcellulose) (HPC) 97 % of control | [1] 106 % of control | [2] 95 % of control | [3] 105 % of control | [4] 103 % of control | [5] 94 % of control | [6] 92 % of control | [7] 101 % of control | [8] 101 % of control | [9] 97 % of control | [10] 100 % of control | [11] 97 % of control

CCCCCCCCCCCCNC(C1=C(O)c2ccccc2C(=O)C1=O)c1ccccc1 (stereo unspecified)
inactive: [2] 95 % of control | [6] 88 % of control | [10] 95 % of control

CNc1ccc(/C=C2\C=Cc3ccccc32)cc1
inactive: dose: 12.0 mg/kg/injection, schedule: Q01DX Z (ip), vehicle: carboxymethylcellulose (CMC) 95 % of control | dose: 25.0 mg/kg/injection, schedule: Q01DX Z (ip), vehicle: carboxymethylcellulose (CMC) 98 % of control | [12] 101 % of control | dose: 50.0 mg/kg/injection, schedule: Q01DX Z (ip), vehicle: carboxymethylcellulose (CMC) 120 % of control | [13] 101 % of control | dose: 100.0 mg/kg/injection, schedule: Q01DX Z (ip), vehicle: carboxymethylcellulose (CMC) 93 % of control | [14] 108 % of control | dose: 200.0 mg/kg/injection, schedule: Q01DX Z (ip), vehicle: carboxymethylcellulose (CMC) 98 % of control | [15] 100 % of control

CC(=O)c1cc2c(cc1C)OCO2
inactive: [16] 103 % of control | [17] 97 % of control | [18] 101 % of control

CC(=O)Nc1ccc(S(=O)(=O)F)cc1C
inactive: [3] 98 % of control | [7] 95 % of control

O=C(O)c1ccc(C(=O)c2ccccc2C(=O)O)cc1
inactive: [19] 105 % of control | [5] 102 % of control | dose: 200.0 mg/kg/injection, schedule: Q01DX009 (ip), vehicle: saline 106 % of control | [9] 112 % of control | dose: 400.0 mg/kg/injection, schedule: Q01DX009 (ip), vehicle: saline 105 % of control | [11] 101 % of control

CC(=O)OCOC(COC(C)=O)C1OCOC(COC(C)=O)C1OCOC(C)=O (stereo unspecified)
inactive: dose: 100.0 mg/kg/injection, schedule: Q04DX002 (ip), vehicle: saline with Tween-80 100 % of control | dose: 200.0 mg/kg/injection, schedule: Q04DX002 (ip), vehicle: saline with Tween-80 100 % of control | dose: 400.0 mg/kg/injection, schedule: Q04DX002 (ip), vehicle: saline with Tween-80 100 % of control

CN1N=Nc2cccc3cccc1c23
inactive: dose: 50.0 mg/kg/injection, schedule: Q01DX009 (ip), vehicle: acetone 112 % of control | dose: 100.0 mg/kg/injection, schedule: Q01DX009 (ip), vehicle: acetone 107 % of control | dose: 100.0 mg/kg/injection, schedule: Q04DX003 (ip), vehicle: acetone 94 % of control | dose: 200.0 mg/kg/injection, schedule: Q04DX003 (ip), vehicle: acetone 87 % of control

CC1(C)C2CCC1(C)C(OC(=O)c1ccc([N+](=O)[O-])cc1)C2OC(=O)c1ccc([N+](=O)[O-])cc1 (stereo unspecified)
inactive: dose: 75.0 mg/kg/injection, schedule: Q01DX009 (ip), vehicle: saline 108 % of control | dose: 150.0 mg/kg/injection, schedule: Q01DX009 (ip), vehicle: saline 103 % of control | dose: 300.0 mg/kg/injection, schedule: Q01DX009 (ip), vehicle: saline 97 % of control

CCN(C(=O)Nc1ccc(Cl)cc1)c1ccccc1
inactive: [20] 96 % of control | [21] 95 % of control | [22] 86 % of control

CCCCNC(=O)n1ncc2cc(Cl)ccc21
inactive: [16] 103 % of control | [17] 100 % of control | [18] 94 % of control

NC(=O)NC1CC1c1ccccc1 (stereo unspecified)
inactive: [16] 101 % of control | [17] 95 % of control | [18] 120 % of control

CC(C)CCC[C@@H](C)[C@H]1CC[C@H]2[C@@H]3CC=C4C[C@@H](O)CC[C@]4(C)[C@H]3CC[C@]12C
inactive: [16] 92 % of control | [3] 94 % of control | [4] 97 % of control | [17] 95 % of control | [7] 91 % of control | [8] 89 % of control | [18] 92 % of control | dose: 400.0 mg/kg/injection, schedule: Q01DX009 (ip), vehicle: Klucel (hydroxypropylcellulose) (HPC) 92 % of control | dose: 400.0 mg/kg/injection, schedule: Q04DX003 (ip), vehicle: Klucel (hydroxypropylcellulose) (HPC) 94 % of control

COc1ccc(-n2c(=O)c(N=Nc3ccc(Br)cc3)c(O)n(-c3ccccc3C)c2=S)cc1
inactive: dose: 75.0 mg/kg/injection, schedule: Q04DX003 (ip), vehicle: Klucel (hydroxypropylcellulose) (HPC) 98 % of control | dose: 150.0 mg/kg/injection, schedule: Q04DX003 (ip), vehicle: Klucel (hydroxypropylcellulose) (HPC) 104 % of control | dose: 300.0 mg/kg/injection, schedule: Q04DX003 (ip), vehicle: Klucel (hydroxypropylcellulose) (HPC) 107 % of control

Cc1cc([N+](=O)[O-])ccc1I
inactive: [12] 101 % of control | [13] 95 % of control | [14] 95 % of control | [15] 90 % of control

C1=NCCCN1
inactive: dose: 50.0 mg/kg/injection, schedule: Q01DX009 (ip), vehicle: saline 89 % of control | [19] 94 % of control | [5] 97 % of control | [9] 100 % of control

c1ccc(C2CC([P+](c3ccccc3)(c3ccccc3)c3ccccc3)=NN2)cc1 (stereo unspecified)
inactive: dose: 3.12 mg/kg/injection, schedule: Q01DX009 (ip), vehicle: Klucel (hydroxypropylcellulose) (HPC) 103 % of control | dose: 6.25 mg/kg/injection, schedule: Q01DX009 (ip), vehicle: Klucel (hydroxypropylcellulose) (HPC) 120 % of control | dose: 6.25 mg/kg/injection, schedule: Q04DX003 (ip), vehicle: Klucel (hydroxypropylcellulose) (HPC) 110 % of control | dose: 12.5 mg/kg/injection, schedule: Q01DX002 (ip), vehicle: Klucel (hydroxypropylcellulose) (HPC) 114 % of control | dose: 12.5 mg/kg/injection, schedule: Q01DX009 (ip), vehicle: Klucel (hydroxypropylcellulose) (HPC) 92 % of control | dose: 12.5 mg/kg/injection, schedule: Q04DX003 (ip), vehicle: Klucel (hydroxypropylcellulose) (HPC) 108 % of control | dose: 25.0 mg/kg/injection, schedule: Q01DX001 (ip), vehicle: Klucel (hydroxypropylcellulose) (HPC) 104 % of control | dose: 25.0 mg/kg/injection, schedule: Q01DX002 (ip), vehicle: Klucel (hydroxypropylcellulose) (HPC) 104 % of control | dose: 25.0 mg/kg/injection, schedule: Q04DX003 (ip), vehicle: Klucel (hydroxypropylcellulose) (HPC) 108 % of control | dose: 50.0 mg/kg/injection, schedule: Q01DX001 (ip), vehicle: Klucel (hydroxypropylcellulose) (HPC) 97 % of control | dose: 50.0 mg/kg/injection, schedule: Q01DX002 (ip), vehicle: Klucel (hydroxypropylcellulose) (HPC) 97 % of control | [1] 97 % of control

Cc1c(Cl)cc(Cl)c(N)c1Cl
inactive: [20] 100 % of control | [21] 98 % of control | [22] 96 % of control

N/C(=N\N=C\c1ccc(-c2ccccc2)cc1)N[N+](=O)[O-]
inactive: [12] 104 % of control | [13] 100 % of control | [14] 93 % of control

COc1cccc(C2N(Cc3ccc(N(CCCl)CCCl)cc3C)CCCN2Cc2ccc(N(CCCl)CCCl)cc2C)c1O
inactive: [12] 116 % of control | [13] 120 % of control | [14] 100 % of control

CC1(C)C2CCC(CC(=O)O)C1C2 (stereo unspecified)
inactive: [20] 101 % of control | [21] 101 % of control

CC(=O)OC(C(O)C=O)C(O)C(O)CO (stereo unspecified) (tested in a mixture with another compound)
inactive: dose: 100.0 mg/kg/injection, schedule: Q04DX002 (ip), vehicle: Klucel (hydroxypropylcellulose) (HPC) 107 % of control | dose: 200.0 mg/kg/injection, schedule: Q04DX002 (ip), vehicle: Klucel (hydroxypropylcellulose) (HPC) 88 % of control
